From US20250289799A1, “PYRIMIDINE COMPOUND, METHOD FOR PREPARING SAME, AND PHARMACEUTICAL USE THEREOF” (JIANGSU YAHONG MEDITECH CO., LTD., priority 2022, published 2025)

Columns and labels:
MDA-MB-436 = experiment: CTG experiment on cell activity (CellTiter-Glo, 7 days); format: cell-based; details: MDA-MB-436 cells, cultured for 7 days
Protocol: • 1. Object: USP1 inhibitors were screened on 96-well plate by CTG assay. • 2. Materials: • The cells used were MDA-MB-436 (manufacturer: Nanjing Cobioer Biotechnology Co., Ltd.), and the culture medium was DMEM. • CTG (CellTiter-Glo® Luminescent Cell Viability Assay kit) (Promega, Catalog No.: G7572) • 96-well plate (Corning, Catalog No.: 3610) • 3. Compounds: • All compounds were dissolved in 100% DMSO to obtain 50 mM stock solutions. • 4. Experimental methods:
The cells to be tested were spread into a 96-well plate at a certain density at 200 μL per well, and 200 μL of cell culture medium was added to the blank well. The spread cell plate was placed in a 37° C. incubator.
The compound was diluted to different concentrations with 100% DMSO, and the final concentration of DMSO was 4%.
The compound formulated in (2) was added to the cell plate of (1) (10 μL per well). The cell plate with the compound added was placed in a 37° C. incubator, and cultured for 7 days before assay.
The substrate and buffer of the CTG kit were mixed evenly. The cell plate with the compound added in (3) was taken out from the incubator, and placed at room temperature for 30 minutes. The compound-containing culture medium in the cell plate was removed, 100 μL of PBS and 50 μL of CTG reagent were added to each well. The mixture in each well was mixed and shaked for 3 minutes, and then incubated at room temperature for 10 minutes. The plate was read by BIotek microplate reader, and the parameter was 567 CPM. • 5. Curve fitting • Same as enzyme assay.

[1] = target: Recombinant human His6-USP1/His6-UAF1 complex protein (Homo sapiens (Human), UniProt O94782); experiment: In vitro , fluorescence detection with Ub-Rho substrate; format: biochemical
Protocol: Experimental object: The USP1 […] inhibitory activity of the compounds was screened by fluorescence detection method using 384-well plates.
Experimental materials: Recombinant human His6-USP1/His6-UAF1 complex protein (R&D, Catalog No.: E-568-050), ubiquitin rhodamine 110 protein (Ub-Rho) (R&D, Catalog No.: U-555-050), 384-well plate (Perkin Elmer, Catalog No.: 6007279); all compounds were dissolved in 100% DMSO to obtain a 50 mM stock solution.
• 1) Preparation of 1× assay buffer: 1× assay buffer (modified Tris buffer) was prepared; • 2) Compound dilution: The compound was transferred to the assay plate by Echo. The final concentration of DMSO is 1%; • 3) Preparation of enzyme solution: Recombinant human His6-USP1/His6-UAF1 complex protein was added to 1× assay buffer to obtain an enzyme solution; • 4) Preparation of substrate solution: Ubiquitin rhodamine 110 protein CF (Ub-Rho) was added to 1× assay buffer to obtain a substrate solution; • 5) 10 μL enzyme solution was transferred to the assay plate, and 10 μL 1× assay buffer was added to the control well; • 6) The plate was incubated at room temperature for 1 hour; • 7) 10 μL substrate solution was added to each well to start the reaction, and the plate was centrifuged for 30 seconds, and shaked for 30 seconds; • 8) The plate was read with Envision after 30 minutes, and the parameters were excitation light 480 nm and emission light 540 nm; • 9) The data was collected and summarized; • 10) Curve fitting: The data was fitted in Excel, Inhibition rate formula: Percent inhibition rate=(maximum value−signal value)/(maximum value−minimum value)×100; the data was fitted in XL-Fit, • Half inhibition concentration formula: Percent inhibition rate=minimum concentration+(maximum concentration−minimum concentration)/(1+(half inhibition concentration/compound concentration)^slope); • Half inhibition concentration is referred to as IC50 hereinafter.

Chain of Recombinant human His6-USP1/His6-UAF1 complex protein (O94782 whole entry): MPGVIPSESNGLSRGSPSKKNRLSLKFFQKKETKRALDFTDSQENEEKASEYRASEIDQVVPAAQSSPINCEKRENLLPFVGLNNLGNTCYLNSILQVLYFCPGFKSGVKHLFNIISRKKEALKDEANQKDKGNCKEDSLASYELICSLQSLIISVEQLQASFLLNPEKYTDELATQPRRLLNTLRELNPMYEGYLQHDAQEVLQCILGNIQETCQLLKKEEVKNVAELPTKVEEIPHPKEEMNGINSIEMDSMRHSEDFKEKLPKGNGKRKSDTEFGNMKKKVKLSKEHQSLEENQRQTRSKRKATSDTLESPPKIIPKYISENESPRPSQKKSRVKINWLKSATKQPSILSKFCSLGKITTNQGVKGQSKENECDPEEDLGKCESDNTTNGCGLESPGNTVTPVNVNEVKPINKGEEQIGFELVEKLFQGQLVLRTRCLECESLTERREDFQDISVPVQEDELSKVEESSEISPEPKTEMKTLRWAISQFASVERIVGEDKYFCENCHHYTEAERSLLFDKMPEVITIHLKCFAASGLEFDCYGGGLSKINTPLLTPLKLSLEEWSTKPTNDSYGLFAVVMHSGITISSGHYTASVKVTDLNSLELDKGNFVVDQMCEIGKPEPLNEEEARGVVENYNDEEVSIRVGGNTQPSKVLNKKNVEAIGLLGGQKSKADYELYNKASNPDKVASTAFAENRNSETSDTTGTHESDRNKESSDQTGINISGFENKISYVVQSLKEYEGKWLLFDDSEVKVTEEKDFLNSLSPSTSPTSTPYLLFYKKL
Chain of Recombinant human His6-USP1/His6-UAF1 complex protein (Q8TAF3 whole entry partner): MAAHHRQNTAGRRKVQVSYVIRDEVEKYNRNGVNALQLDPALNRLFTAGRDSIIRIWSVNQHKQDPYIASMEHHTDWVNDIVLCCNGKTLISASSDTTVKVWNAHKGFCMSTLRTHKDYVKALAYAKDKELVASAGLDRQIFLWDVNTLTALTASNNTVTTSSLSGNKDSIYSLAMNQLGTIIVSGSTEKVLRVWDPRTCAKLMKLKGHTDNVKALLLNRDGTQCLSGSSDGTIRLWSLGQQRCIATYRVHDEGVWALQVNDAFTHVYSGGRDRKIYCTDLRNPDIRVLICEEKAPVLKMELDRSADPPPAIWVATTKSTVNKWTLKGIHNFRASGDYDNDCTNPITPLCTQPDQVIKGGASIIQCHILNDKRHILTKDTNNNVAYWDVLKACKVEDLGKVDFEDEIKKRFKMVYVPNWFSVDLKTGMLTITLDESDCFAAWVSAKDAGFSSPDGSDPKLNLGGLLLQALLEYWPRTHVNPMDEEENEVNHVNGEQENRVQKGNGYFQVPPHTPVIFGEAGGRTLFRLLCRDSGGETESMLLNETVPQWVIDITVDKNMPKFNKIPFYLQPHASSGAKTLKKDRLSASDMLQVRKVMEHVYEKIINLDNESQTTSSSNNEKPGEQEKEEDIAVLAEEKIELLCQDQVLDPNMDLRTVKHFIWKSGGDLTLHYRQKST

Row | SMILES | IC50 (MDA-MB-436; Homo sapiens, 168 h) [nM] | further results
1 | COc1ncnc(C2CC2)c1-c1nc(NCc2ccc(-c3ccccn3)cc2)c2[nH]ccc2n1 [Example 37, 2-(4-Cyclopropyl-6-methoxypyrimidin-5-yl)-N-(4-(pyridin-2-yl)benzyl)-5H-pyrrolo[3,2-d]pyrimidin-4-amine] | > 5000 | –
2 | COc1ncnc(C2CC2)c1-c1ncc2c(n1)N(CC1CCC(c3nc(C(F)(F)F)cn3C)CC1)CCO2 (centres unmarked) [Compound 22, 2-(4-Cyclopropyl-6-methoxypyrimidin-5-y1)-8-(((1r,4r)-4-(1-methyl-4-(trifluoromethyl)-1H-imidazol-2-yl)cyclohexyl)methyl)-7,8-dihydro-6H-pyrimido[5,4-b][1,4]oxazine] | 209 | –
3 | COc1ncnc(C2CC2)c1-c1nc(NCc2ccc3c(c2)CCN(C)C3=O)c2occc2n1 [Example 114, 6-(((2-(4-Cyclopropyl-6-methoxypyrimidin-5-yl)furo[3,2-d]pyrimidin-4-yl)amino)methyl)-2-methyl-3,4-dihydroisoquinolin-1(2H)-one] | > 5000 | –
4 | COc1cnc(-c2cccc3ccn(C)c23)nc1NCc1ccc(-n2nc(C(F)(F)F)cc2C)cc1 [Example 144, 5-Methoxy-2-(1-methyl-1H-indol-7-yl)-N-(4-(5-methyl-3-(trifluoromethyl)-1H-pyrazol-1-yl)benzyl)pyrimidin-4-amine] | 1670 | –
5 | CC(C)c1ccccc1-c1nc(NCc2ccc3c(c2)CCN(C)C3=O)c2occc2n1 [Example 77, 6-(((2-(2-Isopropylphenyl)furo[3,2-d]pyrimidin-4-yl)amino)methyl)-2-methyl-3,4-dihydroisoquinolin-1(2H)-one] | 1800 | –
6 | COc1cnc(-c2c(OC)ncnc2C2CC2)nc1NCC12C3C4C1C1C2C3C41c1nc(C(F)(F)F)cn1C (centres unmarked) [Example 215] | – | IC50 [1]: 2.2 nM; IC50 (MDA-MB-436): 8.7 nM
7 | COc1ncnc(C2CC2)c1-c1nc(NCc2ccc(-c3ccccn3)cc2)c2occc2n1 [Example 34, 2-(4-Cyclopropyl-6-methoxypyrimidin-5-y1)-N-(4-(pyridin-2-yl)benzyl)furo[3,2-d]pyrimidin-4-amine] | – | IC50 [1]: 6.9 nM
8 | COc1cnc(-c2cccc3ccn(C)c23)nc1NCc1ccc(-c2nc(C(F)(F)F)cn2C)cc1 [Example 143, 5-Methoxy-2-(1-methyl-1H-indol-7-yl)-N-(4-(1-methyl-4-(trifluoromethyl)-1H-imidazol-2-yl)benzyl)pyrimidin-4-amine] | 1440 | –
9 | COc1ncnc(C2CC2)c1-c1nc(NCc2ccc(OC3CC(OC)C3)cc2)c2occc2n1 (centres unmarked) [Example 118, 2-(4-Cyclopropyl-6-methoxypyrimidin-5-yl)-N-(4-(3-methoxycyclobutoxy)benzyl)furo[3,2-d]pyrimidin-4-amine] | 1490 | –
10 | COc1cnc(-c2cccc3c2N(C)CC3)nc1NCc1ccc(-n2ncc(C(F)(F)F)c2C)cc1 [Example 146, 5-Methoxy-N-(4-(5-methyl-4-(trifluoromethyl)-1H-pyrazol-1-yl)benzyl)-2-(1-methylindolin-7-yl)pyrimidin-4-amine] | 1060 | –
11 | COc1ncnc(C2CC2)c1-c1nc(NCc2ccc3c(c2)CCN(C(C)C)C3=O)c2occc2n1 [Example 115, 6-(((2-(4-Cyclopropyl-6-methoxypyrimidin-5-yl)furo[3,2-d]pyrimidin-4-yl)amino)methyl)-2-isopropyl-3,4-dihydroisoquinolin-1(2H)-one] | 1610 | –
12 | CCOCCOc1ccc(CNc2nc(-c3ccccc3C(C)C)nc3ccoc23)cc1 [Example 79, N-(4-(2-Ethoxyethoxy)benzyl)-2-(2-isopropylphenyl)furo[3,2-d]pyrimidin-4-amine] | 1210 | –
13 | COc1cnc(-c2ccccc2C(C)C)nc1NCc1ccc(OCc2ccccn2)cc1 [Example 67, 2-(2-Isopropylphenyl)-5-methoxy-N-(4-(pyridin-2-ylmethoxy)benzyl)pyrimidin-4-amine] | 1170 | –
14 | COc1cnc(-c2ccccc2C(C)C)nc1N(C)Cc1ccc(-c2ccccn2)cc1 [Compound 1, 2-(2-isopropylphenyl)-5-methoxy-N-methyl-N-(4-(pyridin-2-yl)benzyl)pyrimidin-4-amine] | 1270 | –
15 | COc1cnc(-c2ccccc2C(C)C)nc1NCC1CCC(c2nc(C(F)(F)F)cn2C)CC1 [Compound 6, 2-(2-Isopropylphenyl)-5-methoxy-N-(((1R,4R)-4-(1-methyl-4-(trifluoromethyl)-1H-imidazol-2-yl)cyclohexyl)methyl)pyrimidin-4-amine] | 2 | –
16 | CC(C)c1ccccc1-c1ncc(N2CCOCC2)c(NCc2ccc(-c3nc(C(F)(F)F)cn3C)cc2)n1 [Example 87, 2-(2-Isopropylphenyl)-N-(4-(1-methyl-4-(trifluoromethyl)-1H-imidazol-2-yl)benzyl)-5-morpholinopyrimidin-4-amine] | 2650 | –
17 | COc1ncnc(C2CC2)c1-c1ncc(OC(C)C)c(NCC23CCC(c4ccc(C(F)(F)F)cn4)(CC2)CC3)n1 [Example 112, 4′-Cyclopropyl-5-isopropoxy-6′-methoxy-N-((4-(5-(trifluoromethyl)pyridin-2-yl)bicyclo[2.2.2]octan-1-yl)methyl)-[2,5′-bipyrimidin]-4-amine] | > 5000 | –
18 | CC(C)c1ccccc1-c1ncc2c(n1)N(C[C@H]1CC[C@@H](c3nc(C(F)(F)F)cn3C)CC1)CCO2 [Compound 14, 2-(2-Isopropylphenyl)-8-(((1s,4s)-4-(1-methyl-4-(trifluoromethyl)-1H-imidazol-2-yl)cyclohexyl)methyl)-7,8-dihydro-6H-pyrimido[5,4-b][1,4]oxazine] | – | IC50 [1]: 60 nM
19 | COc1cnc(-c2c(C)ncn2C(C)C)nc1NCC12CCC(c3ccc(C(F)(F)F)cn3)(CC1)CC2 [Example 148, 2-(1-Isopropyl-4-methyl-1H-imidazol-5-yl)-5-methoxy-N-((4-(5-(trifluoromethyl)pyridin-2-yl)bicyclo[2.2.2]octan-1-yl)methyl)pyrimidin-4-amine] | – | IC50 [1]: 1050 nM
20 | CC(C)c1ccccc1-c1nc(NCc2ccc3c(c2)CCN(C(C)C)C3=O)c2occc2n1 [Example 78, 2-Isopropyl-6-(((2-(2-isopropylphenyl)furo[3,2-d]pyrimidin-4-yl)amino)methyl)-3,4-dihydroisoquinolin-1(2H)-one] | > 5000 | –
21 | CC(C)c1ccccc1-c1ncc2c(n1)N(C[C@H]1CC[C@H](c3nc(C(F)(F)F)cn3C)CC1)CCO2 [Compound 13, 2-(2-Isopropylphenyl)-8-(((1R,4R)-4-(1-methyl-4-(trifluoromethyl)-1H-imidazol-2-yl)cyclohexyl)methyl)-7,8-dihydro-6H-pyrimido[5,4-b][1,4]oxazine] | – | IC50 [1]: 1.9 nM
22 | COC1CC(Oc2ccc(CNc3nc(-c4ccccc4C(C)C)nc4ccoc34)cc2)C1 (centres unmarked) [Example 80, 2-(2-Isopropylphenyl)-N-(4-(3-methoxycyclobutoxy)benzyl)furo[3,2-d]pyrimidin-4-amine] | > 5000 | –
